The record followed here is patent publication US8546357B2, “Boron-containing small molecules for controlling ectoparasites” (priority 2011, dated 2013).

Broadly, the mortality is the percentage killed.

Where only a bound is given, the exact number is not on record here.

The subject of series [1] is American dog tick (Dermacentor variabilis) nymphs. The series is described as follows: Efficacy against nymphal-stage American dog ticks on rats, oral. The format is in vivo. Particulars: fipronil positive control, oral 10 mg/kg bodyweight, all studies. The procedure:
Evaluations were conducted using a modified version of the assay as described in Gutierrez et al., J. Med. Entomol. 43(3): 526-532 (2006). This assay may be modified by simply using different tick species (the reference describes Amblyomma americanum ticks), such as Dermacentor variabilis or Rhipicephalus sanguineus ticks, as well as different life-stages (larval, nymphal or adult). Further, the reference describes using topical application methods, but oral, transdermal and subcutaneous injection routes of administration may be used.
In these studies, adult male or female rats, approximately 300 grams in size, were randomly assigned to a treatment group or a control (untreated negative control or fipronil positive control) group. Each group consisted of three (3) to five (5) rats. […] On Day 2, approximately forty-eight (48) hours after treatment, live and dead ticks were removed from animals and counted.
Live tick counts were transformed using the natural logarithm transformation plus one (Ln count+1); addition of one to each count served to adjust for counts that were zero. […] GM percent efficacy of treatments was calculated using the following formula:
Enantiomers were evaluated for activity against American dog tick (Dermacentor variabilis) nymphs on rats. […] On Day 2, approximately forty-eight (48) hours after treatment, live and dead ticks were removed from animals and counted. […]

Series [2] has as its system Lone star tick larvae (Amblyomma americanum). The series is described as follows: Larval immersion microassay against larval-stage Lone star ticks. Particulars: Amblyomma americanum, 24 h, read-out: activity (percent larval mortality). On the procedure: The larval immersion microassay was conducted as described in detail in White, et al., J. Med. Entomol. 41: 1034-1042 (2004). Compounds of the invention were formulated in dimethylsulfoxide (DMSO) to prepare a stock solution at a concentration of at least 10 mM. Using 96-well microtiter plates, an aliquot of the mM sample was subsequently diluted in a water-based solution containing 1% ethanol and 0.2% Triton X-100, to obtain the desired concentration (typically 0.3 mM or lower) of compound in a volume of 0.1 ml (minimum n=3 replicates per compound or concentration). Approximately 30-50 Lone star tick larvae (Amblyomma americanum) were submerged into each well containing compounds. After a 30 minute immersion period, larvae were removed with a wide-bore pipette tip in 0.05 ml of fluid, dispensed into a commercial paper tissue biopsy bag which was sealed at the top with a plastic dialysis clip, inverted and allowed to air dry for 60 minutes. Bags containing larvae were then incubated at approximately 27 degrees Celsius and >90% relative humidity. After 24 hours, bags were opened, live and dead larvae were counted and percent larval mortality was calculated.
7 and 8 contain one chiral center each, and are racemic mixtures comprised of approximately 50% R- and 50% S-enantiomer. In vitro and surrogate animal (rat) studies were conducted to evaluate the biological activity of the R- and S-enantiomers of 7 and 8. For the in vitro study, larvae of the Lone star tick (Amblyomma americanum) were exposed to 9, 10, 11 and 12 using the larval immersion microassay at a concentration of no greater than 0.3 mM. Following exposure, larvae were removed, transferred to a tissue biopsy bag and incubated at approximately 27 degrees Celsius and >90% relative humidity. After 24 hours, biopsy bags were opened and the numbers of live and dead larvae were determined

The test system of series [3] is adult American dog tick (Dermacentor variabilis). The series is described as follows: Therapeutic (knockdown) and residual efficacy against adult American dog tick infestations on dogs, oral. It counts as in vivo. Particulars: for Geometric mean group live parasite counts / % efficacy: Table 2, oral capsule 25 mg/kg. On the procedure: (§1) The therapeutic (knockdown) and residual efficacy of 5, administered orally at a point dose of 25 mg/kg bodyweight, was evaluated against adult American dog tick (D. variabilis) infestations on dogs. Six beagle dogs were allocated to one of two treatment groups, an untreated control group (n=4 dogs) or 5 group (n=2 dogs). On Day 0, two dogs were treated with 5 via oral gavage (25 mg/ml 5, dissolved in a solution of 55% polyethylene glycol-300, 35% propylene glycol and 10% water) at a point dose of approximately 25 mg/kg. Twenty-four (24) hours before treatment (Day −1), all dogs were infested with approximately 50 unfed, adult-stage American dog ticks (D. variabilis; approximately 50% male and 50% female). On Day 1, approximately 24 hours after treatment, thumb counts were conducted to determine the number and life-status classification of ticks present on all dogs (normal, moribund or dead; attached or detached). Ticks were not removed during thumb counts. On Day 2, approximately 48 hours after treatment, all ticks were classified and removed from dogs. Dogs were re-infested with approximately 50 unfed, adult D. variabilis ticks on Days 5 and 12, with tick classification, counts and removal on Days 7 and 14 (approximately 48 hours after each infestation).
(§2) The therapeutic (knockdown) and residual efficacy of 7 and 8, each administered orally at a point dose of 25 mg/kg bodyweight, was evaluated against adult tick (Dermacentor variabilis and Rhipicephalus sanguineus) and adult cat flea (Ctenocephalides felis) infestations on dogs. Twelve (12) male and female beagle dogs were randomly allocated to one of three treatment groups, four (4) dogs per group: Untreated control; 7, 25 mg/kg; and 8, 25 mg/kg. On Day −1, all dogs were infested with approximately 50 unfed, adult D. variabilis ticks. On Day 0, dogs were orally administered gelatin capsules containing either 7 or 8 (50% technical active, 47% microcrystalline cellulose and 3% croscarmellose sodium, w/w). Ticks were counted and classified, but not removed, on all dogs on Day 1, approximately 24 hours after treatment. On Day 2, approximately 48 hours after treatment, ticks were counted, classified and removed. Dogs were re-infested with the same number of D. variabilis ticks on Days 5, 12, 19 and 28 and tick counts were conducted on Days 7, 14, 21 and 30.
(§3) The therapeutic (knockdown) and residual efficacy of 7, administered orally at a point dose of 35 mg/kg bodyweight, was evaluated against adult tick (Dermacentor variabilis and Rhipicephalus sanguineus) and adult cat flea (Ctenocephalides felis) infestations on dogs. Twelve (12) male and female beagle dogs were allocated to either an untreated, negative control group or 7 group (n=6 dogs per group). Dogs were infested with approximately 50 unfed, adult D. variabilis ticks on Days −1, 5, 12, 19, 28, 35 and 42. On Day 0, dogs were orally administered gelatin capsules containing Compound 8194 (50% technical active, 47% microcrystalline cellulose and 3% croscarmellose sodium, w/w) at a point dose of 35 mg/kg. D. variabilis tick counts and classification were conducted on Day 1 (thumb count, approximately 24 hours after treatment) and Days 2, 7, 14, 21, 30, 37 and 44 (approximately 48 hours after treatment). Following removal of D. variabilis ticks on Day 30, all dogs were co-infested with approximately 50 unfed, adult brown dog ticks (R. sanguineus) and approximately 100 unfed, adult cat fleas (C. felis). Brown dog tick and cat flea counts were conducted on Day 32 (approximately 48 hours after infestation). GM percent efficacy of treatments against both tick species and fleas was calculated using the following formula: […]
The therapeutic (knockdown) and residual efficacy of S-enantiomer, 9, administered orally at a point dose of 25 mg/kg bodyweight, was evaluated against adult tick (Dermacentor variabilis and Rhipicephalus sanguineus) and adult cat flea (Ctenocephalides felis) infestations on dogs. […]

Series [4] concerns brown dog tick (Rhipicephalus sanguineus). The series is described as follows: Residual efficacy against adult brown dog tick infestations on dogs, oral. Particulars: Table 2, oral capsule 25 mg/kg, Day 32. The format is in vivo. On the procedure: (§4) Immediately following removal of D. variabilis ticks on Day 30, dogs were co-infested with approximately 50 adult, unfed brown dog ticks (R. sanguineus, approximately 50% male and 50% female) and approximately 100 adult, unfed cat fleas (C. felis, approximately 50% male and 50% female). Ticks and fleas were counted and removed on Day 32 (approximately 48 hours after infestation). GM percent efficacy of treatments against both tick species and fleas was calculated using the following formula: […]
as §3
(§5) The therapeutic (knockdown) and residual efficacy of S-enantiomer, 9, administered orally at a point dose of 25 mg/kg bodyweight, was evaluated against adult tick (Dermacentor variabilis and Rhipicephalus sanguineus) and adult cat flea (Ctenocephalides felis) infestations on dogs. Twelve (12) male and female beagle dogs were allocated to either an untreated, negative control group or 9 group (n=6 dogs per group). Dogs were infested with approximately 50 unfed, adult D. variabilis ticks on Days −1, 5, 12, 19, and 28. On Day 0, dogs were orally administered gelatin capsules containing 9 (50% technical active, 47% microcrystalline cellulose and 3% croscarmellose sodium, w/w) at a point dose of 25 mg/kg. D. variabilis tick counts and classification were conducted on Day 1 (thumb count, approximately 24 hours after treatment) and Days 2, 7, 14, 21 and 30 (approximately 48 hours after treatment). Following removal of D. variabilis ticks on Day 30, all dogs were co-infested with approximately 50 unfed, adult brown dog ticks (R. sanguineus) and approximately 100 unfed, adult cat fleas (C. felis). Brown dog tick and cat flea counts were conducted on Day 32 (approximately 48 hours after infestation). GM percent efficacy of treatments against both tick species and fleas was calculated using the following formula: […]

Series [5] relates to cat flea (Ctenocephalides felis). The series is described as follows: Residual efficacy against adult cat flea infestations on dogs, oral. It counts as in vivo. The settings on record: Table 2, oral capsule 25 mg/kg, Day 32. On the procedure:
as §4, §3, §5

The nature of series [6]: Tolerability of oral treatment in dogs. The settings on record: Example 6, oral capsule 25 mg/kg. It counts as in vivo, dog. The procedure:
as §1, §2
The therapeutic (knockdown) and residual efficacy of 7, administered orally at a point dose of 35 mg/kg bodyweight, was evaluated against adult tick (Dermacentor variabilis and Rhipicephalus sanguineus) and adult cat flea (Ctenocephalides felis) infestations on dogs. Twelve (12) male and female beagle dogs were allocated to either an untreated, negative control group or 7 group (n=6 dogs per group). Dogs were infested with approximately 50 unfed, adult D. variabilis ticks on Days −1, 5, 12, 19, 28, 35 and 42. On Day 0, dogs were orally administered gelatin capsules containing Compound 8194 (50% technical active, 47% microcrystalline cellulose and 3% croscarmellose sodium, w/w) at a point dose of 35 mg/kg. […] GM percent efficacy of treatments against both tick species and fleas was calculated using the following formula: […]
The therapeutic efficacy and speed of kill of 7, administered orally at a point dose of 20 mg/kg bodyweight, was evaluated against adult cat flea (Ctenocephalides felis) infestations on dogs. […]

Take `N#Cc1nn(-c2c(Cl)cc(C(F)(F)F)cc2Cl)c(N)c1[S+]([O-])C(F)(F)F` (centres unmarked) [Fipronil, fipronil, reference compound]: the “efficacy (% reduction in live tick counts)” value in series [1] was greater than 95%.
On to `Cc1cc(C2=NOC(c3cc(Cl)c(F)c(Cl)c3)(C(F)(F)F)C2)ccc1C(=O)NCc1ccc2c(c1)B(O)OC2(C)C` (racemic) [Compound 8, 4-(5-(3,5-Dichloro-4-fluorophenyl)-5-(trifluoromethyl)-4,5-dihydroisoxazol-3-yl)-N-((1-hydroxy-3,3-dimethyl-1,3-dihydrobenzo[c][1,2]oxaborol-6-yl)methyl)-2-methylbenzamide], for which the mortality at 300 µM in series [2] is no less than 80%. For the same molecule, the continued residual efficacy in series [3] (Example 6, oral capsule 25 mg/kg, through at least 14 days) is recorded as 100%. The “Geometric mean group live parasite counts” value in series [3] (Day 1) is 0.0; in series [3] (Day 2) it was 0.0; in series [3] (Day 7), 0.0; in series [3] (Day 14), 0.0; in series [3] (Day 21) it was 0.7; in series [3] (Day 30), 6.7. In addition, the “Geometric mean group live parasite counts” value in series [4] is 4.1; in series [5], 7.1. Also, the “% efficacy” value is reported as “(100) %” in series [3] (Day 2); “(100) %” in series [3] (Day 7); “(100) %” in series [3] (Day 14); “(98.4) %” in series [3] (Day 21); “(81.0) %” in series [3] (Day 30). The tolerability result in series [6] is given as “well tolerated”.
